Laboratory results published in doi:10.1101/2025.10.13.682046v1 (biorxiv, 2025).

Target: CIP2A(1-560) (Homo sapiens, UniProt Q8TCG1)
Assay: microscale thermophoresis
Assay type: binding

SMILES | Kd [µM]
CC(C)=CCC[C@]1(C)C=Cc2c(O)c3c(c(CC=C(C)C)c2O1)O[C@]12C(=C[C@@H]4C[C@H]1C(C)(C)O[C@@]2(C/C=C(/C)C(=O)O)C4=O)C3=O [GIA, Gambogic acid] | 4.6
CC(C)=CCC[C@]1(C)C=Cc2c(O)c3c(c(CC=C(C)C)c2O1)O[C@]12C(=C[C@@H]4C[C@H]1C(C)(C)O[C@@]2(C/C=C(/C)C(=O)N1CCOCC1)C4=O)C3=O [DAP-19] | 8.4
CC(C)=CCC/C(C)=C/Cc1c(O)c(CC=C(C)C)c2c(c1O)C(=O)C1=C[C@@H]3C[C@H]4C(C)(C)O[C@@](C/C=C(/C)C(=O)NCCCCCNC(=O)CCCC[C@@H]5SC[C@@H]6NC(=O)N[C@@H]65)(C3=O)[C@@]14O2 [bGNA, biotinylated gambogenic acid] | 4.2
